The assay addresses recombinant human SAE enzyme (Homo sapiens (Human), UniProt Q9UBT2). Kind of assay: SAE HTRF enzyme assay. The class given is biochemical. The following applies: for Percent Inhibition: Concentration 0.111 μM; for IC50: class symbols A/B/C. Put shortly: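 First, recombinant human SAE (0.11 nM) transfers Sumo-Flag onto Ubc9-GST using 0.5 μM ATP for 105 min at 24° C. Next, EDTA-containing detection buffer with labelled anti-Flag and anti-GST antibodies is added for 2 h. Finally, FRET is quantified and percent inhibition or IC50 derived.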
(In general: TR-FRET usually uses a lanthanide donor and a delayed reading to cut background.)

Chain of recombinant human SAE enzyme (Q9UBT2 whole entry): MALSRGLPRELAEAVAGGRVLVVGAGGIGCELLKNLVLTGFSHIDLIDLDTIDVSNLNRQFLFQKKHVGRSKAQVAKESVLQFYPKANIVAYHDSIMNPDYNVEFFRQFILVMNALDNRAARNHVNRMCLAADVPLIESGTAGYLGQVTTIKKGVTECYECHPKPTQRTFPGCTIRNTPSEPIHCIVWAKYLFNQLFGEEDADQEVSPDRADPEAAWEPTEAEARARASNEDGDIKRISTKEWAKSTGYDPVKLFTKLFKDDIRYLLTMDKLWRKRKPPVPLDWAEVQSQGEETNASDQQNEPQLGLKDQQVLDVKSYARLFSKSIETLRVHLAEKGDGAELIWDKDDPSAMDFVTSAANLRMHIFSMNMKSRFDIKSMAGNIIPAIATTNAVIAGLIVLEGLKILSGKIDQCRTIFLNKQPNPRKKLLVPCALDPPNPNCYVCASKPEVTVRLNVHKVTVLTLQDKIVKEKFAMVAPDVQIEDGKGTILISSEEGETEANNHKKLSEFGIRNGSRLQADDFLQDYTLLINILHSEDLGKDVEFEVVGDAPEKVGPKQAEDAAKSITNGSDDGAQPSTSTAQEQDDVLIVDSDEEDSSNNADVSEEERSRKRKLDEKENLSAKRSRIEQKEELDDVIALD
Chain of recombinant human SAE enzyme (Q9UBE0 whole entry partner): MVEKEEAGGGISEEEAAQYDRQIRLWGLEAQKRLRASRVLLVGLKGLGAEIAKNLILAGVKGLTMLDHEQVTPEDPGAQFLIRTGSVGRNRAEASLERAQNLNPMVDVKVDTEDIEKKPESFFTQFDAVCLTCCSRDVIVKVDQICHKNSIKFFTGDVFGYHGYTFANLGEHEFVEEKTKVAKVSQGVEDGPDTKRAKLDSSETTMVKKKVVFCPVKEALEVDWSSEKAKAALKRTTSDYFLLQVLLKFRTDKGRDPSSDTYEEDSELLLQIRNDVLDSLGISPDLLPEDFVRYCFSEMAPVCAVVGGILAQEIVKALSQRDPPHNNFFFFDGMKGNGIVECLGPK

For the compound `C[C@](O)(c1csc(C(=O)c2cncnc2N[C@@H]2C[C@H](COS(N)(=O)=O)[C@@H](O)[C@H]2O)c1)c1cccc(Br)n1` (single isomer, unassigned) [I-1b, [(1R,2R,3S,4R)-4-{[5-({4-[(1S)-1-(6-bromopyridin-2-yl)-1-hydroxyethyl]-2-thienyl}carbonyl)pyrimidin-4-yl]amino}-2,3-dihydroxycyclopentyl]methyl sulfamate or [(1R,2R,3S,4R)-4-{[5-({4-[(1R)-1-(6-bromopyridin-2-yl)-1-hydroxyethyl]-2-thienyl}carbonyl)pyrimidin-4-yl]amino}-2,3-dihydroxycyclopentyl]methyl sulfamate], the “Percent Inhibition” value was 100 and the IC50 was under 10 nM.
For `NS(=O)(=O)OC[C@H]1C[C@@H](Nc2ncncc2C(=O)c2cc([C@H](O)c3cccc(Cl)n3)c(Cl)s2)C[C@@H]1O` (single isomer, unassigned) [I-2a, [(1R,2S,4R)-4-{[5-({5-chloro-4-[(S)-(6-chloropyridin-2-yl)(hydroxy)methyl]-2-thienyl}carbonyl)pyrimidin-4-yl]amino}-2-hydroxycyclopentyl]methyl sulfamate or [(1R,2S,4R)-4-{[5-({5-chloro-4-[(R)-(6-chloropyridin-2-yl)(hydroxy)methyl]-2-thienyl}carbonyl)pyrimidin-4-yl]amino}-2-hydroxycyclopentyl]methyl sulfamate], in that order: 99 and under 10 nM.
For `NS(=O)(=O)OC[C@H]1C[C@@H](Nc2ncncc2C(=O)c2cc([C@H](O)c3cccc(Cl)n3)c(Cl)s2)C[C@@H]1O` (single isomer, unassigned) [I-2b, [(1R,2S,4R)-4-{[5-({5-chloro-4-[(S)-(6-chloropyridin-2-yl)(hydroxy)methyl]-2-thienyl}carbonyl)pyrimidin-4-yl]amino}-2-hydroxycyclopentyl]methyl sulfamate or [(1R,2S,4R)-4-{[5-({5-chloro-4-[(R)-(6-chloropyridin-2-yl)(hydroxy)methyl]-2-thienyl}carbonyl)pyrimidin-4-yl]amino}-2-hydroxycyclopentyl]methyl sulfamate], the “Percent Inhibition” value came to 61 and the IC50 was 10 to 100 nM.
For `CC(O)(c1cccc(Br)c1)c1csc(C(=O)c2cncnc2N[C@@H]2C[C@H](COS(N)(=O)=O)[C@@H](O)C2)c1` (single isomer, unassigned) [I-3a, [(1R,2S,4R)-4-{[5-({4-[(1R)-1-(3-bromophenyl)-1-hydroxyethyl]-2-thienyl}carbonyl)pyrimidin-4-yl]amino}-2-hydroxycyclopentyl]methyl sulfamate or [(1R,2S,4R)-4-{[5-({4-[(1S)-1-(3-bromophenyl)-1-hydroxyethyl]-2-thienyl}carbonyl)pyrimidin-4-yl]amino}-2-hydroxycyclopentyl]methyl sulfamate], in that order: 92 and 10 to 100 nM.
For `CC(O)(c1cccc(Br)c1)c1csc(C(=O)c2cncnc2N[C@@H]2C[C@H](COS(N)(=O)=O)[C@@H](O)C2)c1` (single isomer, unassigned) [I-3b, [(1R,2S,4R)-4-{[5-({4-[(1R)-1-(3-bromophenyl)-1-hydroxyethyl]-2-thienyl}carbonyl)pyrimidin-4-yl]amino}-2-hydroxycyclopentyl]methyl sulfamate or [(1R,2S,4R)-4-{[5-({4-[(1S)-1-(3-bromophenyl)-1-hydroxyethyl]-2-thienyl}carbonyl)pyrimidin-4-yl]amino}-2-hydroxycyclopentyl]methyl sulfamate], in that order: 100 and under 10 nM.
The like results for `NS(=O)(=O)OC[C@H]1C[C@@H](Nc2ncncc2C(=O)c2cc([C@H](O)c3cccc(Cl)c3)cs2)C[C@@H]1O` (single isomer, unassigned) [I-4a, [(1R,2S,4R)-4-{[5-({4-[(R)-(3-chlorophenyl)(hydroxy)methyl]-2-thienyl}carbonyl)pyrimidin-4-yl]amino}-2-hydroxycyclopentyl]methyl sulfamate or [(1R,2S,4R)-4-{[5-({4-[(S)-(3-chlorophenyl)(hydroxy)methyl]-2-thienyl}carbonyl)pyrimidin-4-yl]amino}-2-hydroxycyclopentyl]methyl sulfamate] were, in that order, 99 and under 10 nM.
Turning to `NS(=O)(=O)OC[C@H]1C[C@@H](Nc2ncncc2C(=O)c2cc([C@H](O)c3cccc(Cl)c3)cs2)C[C@@H]1O` (single isomer, unassigned) [I-4b, [(1R,2S,4R)-4-{[5-({4-[(R)-(3-chlorophenyl)(hydroxy)methyl]-2-thienyl}carbonyl)pyrimidin-4-yl]amino}-2-hydroxycyclopentyl]methyl sulfamate or [(1R,2S,4R)-4-{[5-({4-[(S)-(3-chlorophenyl)(hydroxy)methyl]-2-thienyl}carbonyl)pyrimidin-4-yl]amino}-2-hydroxycyclopentyl]methyl sulfamate], the “Percent Inhibition” value was determined as 100 and the IC50 is under 10 nM.
In the case of `CC(O)(c1cccc(Cl)c1)c1csc(C(=O)c2cncnc2N[C@@H]2C[C@H](COS(N)(=O)=O)[C@@H](O)C2)c1` (single isomer, unassigned) [I-5a, [(1R,2S,4R)-4-{[5-({4-[(1R)-1-(3-chlorophenyl)-1-hydroxyethyl]-2-thienyl}carbonyl)pyrimidin-4-yl]amino}-2-hydroxycyclopentyl]methyl sulfamate or [(1R,2S,4R)-4-{[5-({4-[(1S)-1-(3-chlorophenyl)-1-hydroxyethyl]-2-thienyl}carbonyl)pyrimidin-4-yl]amino}-2-hydroxycyclopentyl]methyl sulfamate], the “Percent Inhibition” value was determined as 86 and the IC50 is 10 to 100 nM.
For `CC(O)(c1cccc(Cl)c1)c1csc(C(=O)c2cncnc2N[C@@H]2C[C@H](COS(N)(=O)=O)[C@@H](O)C2)c1` (single isomer, unassigned) [I-5b, [(1R,2S,4R)-4-{[5-({4-[(1R)-1-(3-chlorophenyl)-1-hydroxyethyl]-2-thienyl}carbonyl)pyrimidin-4-yl]amino}-2-hydroxycyclopentyl]methyl sulfamate or [(1R,2S,4R)-4-{[5-({4-[(1S)-1-(3-chlorophenyl)-1-hydroxyethyl]-2-thienyl}carbonyl)pyrimidin-4-yl]amino}-2-hydroxycyclopentyl]methyl sulfamate], in that order: 100 and under 10 nM.
The like results for `Cc1sc(C(=O)c2cncnc2N[C@@H]2C[C@H](COS(N)(=O)=O)[C@@H](O)C2)cc1[C@H](N)c1cccc(Cl)c1` (single isomer, unassigned) [I-6a, [(1R,2S,4R)-4-{[5-({4-[(R)-amino(3-chlorophenyl)methyl]-5-methyl-2-thienyl}carbonyl)pyrimidin-4-yl]amino}-2-hydroxycyclopentyl]methyl sulfamate or [(1R,2S,4R)-4-{[5-({4-[(S)-amino(3-chlorophenyl)methyl]-5-methyl-2-thienyl}carbonyl)pyrimidin-4-yl]amino}-2-hydroxycyclopentyl]methyl sulfamate] were, in that order, 98 and under 10 nM.
For `Cc1sc(C(=O)c2cncnc2N[C@@H]2C[C@H](COS(N)(=O)=O)[C@@H](O)C2)cc1[C@H](N)c1cccc(Cl)c1` (single isomer, unassigned) [I-6b, [(1R,2S,4R)-4-{[5-({4-[(R)-amino(3-chlorophenyl)methyl]-5-methyl-2-thienyl}carbonyl)pyrimidin-4-yl]amino}-2-hydroxycyclopentyl]methyl sulfamate or [(1R,2S,4R)-4-{[5-({4-[(S)-amino(3-chlorophenyl)methyl]-5-methyl-2-thienyl}carbonyl)pyrimidin-4-yl]amino}-2-hydroxycyclopentyl]methyl sulfamate], in that order: 98 and under 10 nM.
For `COCc1sc(C(=O)c2cncnc2N[C@@H]2C[C@H](COS(N)(=O)=O)[C@@H](O)C2)cc1C(O)c1cccc(Cl)c1` (single isomer, unassigned) [I-7a, [(1R,2S,4R)-4-{[5-({4-[(R)-(3-chlorophenyl)(hydroxy)methyl]-5-(methoxymethyl)-2-thienyl}carbonyl)pyrimidin-4-yl]amino}-2-hydroxycyclopentyl]methyl sulfamate or [(1R,2S,4R)-4-{[5-({4-[(S)-(3-chlorophenyl)(hydroxy)methyl]-5-(methoxymethyl)-2-thienyl}carbonyl)pyrimidin-4-yl]amino}-2-hydroxycyclopentyl]methyl sulfamate], the “Percent Inhibition” value is reported as 96 and the IC50 is under 10 nM.
The like results for `COCc1sc(C(=O)c2cncnc2N[C@@H]2C[C@H](COS(N)(=O)=O)[C@@H](O)C2)cc1C(O)c1cccc(Cl)c1` (single isomer, unassigned) [I-7b, [(1R,2S,4R)-4-{[5-({4-[(R)-(3-chlorophenyl)(hydroxy)methyl]-5-(methoxymethyl)-2-thienyl}carbonyl)pyrimidin-4-yl]amino}-2-hydroxycyclopentyl]methyl sulfamate or [(1R,2S,4R)-4-{[5-({4-[(S)-(3-chlorophenyl)(hydroxy)methyl]-5-(methoxymethyl)-2-thienyl}carbonyl)pyrimidin-4-yl]amino}-2-hydroxycyclopentyl]methyl sulfamate] were, in that order, 98 and under 10 nM.
`CC(N)(c1cccc(Cl)c1)c1csc(C(=O)c2cncnc2N[C@@H]2C[C@H](COS(N)(=O)=O)[C@@H](O)[C@H]2O)c1` (single isomer, unassigned) [I-8a, [(1R,2R,3S,4R)-4-{[5-({4-[(1S)-1-amino-1-(3-chlorophenyl)ethyl]-2-thienyl}carbonyl)pyrimidin-4-yl]amino}-2,3-dihydroxycyclopentyl]methyl sulfamate or [(1R,2R,3S,4R)-4-{[5-({4-[(1R)-1-amino-1-(3-chlorophenyl)ethyl]-2-thienyl}carbonyl)pyrimidin-4-yl]amino}-2,3-dihydroxycyclopentyl]methyl sulfamate]: the “Percent Inhibition” value came to 96 and the IC50 was under 10 nM.

For orientation: IC50 means the concentration that inhibits the measured activity by half.

These data come from patent US10780090B2, “Heteroaryl compounds useful as inhibitors of SUMO activating enzyme” (Millennium Pharmaceuticals, Inc., priority 2014, dated 2020).
